Where two headings read alike, the source gives them in different places.
Test system: patients with advanced TP53 wild-type (WT) leukemias

## COc1ncc(-c2nc3c(n2C(C)C)[C@H](c2ccc(Cl)cc2)N(c2cc(Cl)cn(C)c2=O)C3=O)c(OC)n1 [HDM201, (S)-5-(5-Chloro-1-methyl-2-oxo-1,2-dihydro-pyridin-3-yl)-6-(4-chloro-phenyl)-2-(2,4-dimethoxy-pyrimidin-5-yl)-1-isopropyl-5,6-dihydro-1H-pyrrolo[3,4-d]imidazol-4-one]
All subjects N = 37, Grade 3/4
  AE: Atypical Pneumonia: 0 n (%)
  AE: Balanitis Candida: 0 n (%)
  AE: Blood Alkaline Phosphatase Increased: 0 n (%)
  AE: Blood Bilirubin Increased: 0 n (%)
  AE: Blood Creatinine Increased: 1 (2.7) n (%)
  AE: Blood Phosphorus Increased: 0 n (%)
  AE: Blood Uric Acid Increased: 1 (2.7) n (%)
  AE: Bone Marrow Failure: 1 (2.7) n (%)
  AE: C-Reactive Protein Increased: 1 (2.7) n (%)
  AE: Cardiac Failure: 0 n (%)
  AE: Cellulitis: 1 (2.7) n (%)
  AE: Chronic Graft Versus Host Disease: 1 (2.7) n (%)
  AE: Conjunctival Haemorrhage: 0 n (%)
  AE: Constipation: 0 n (%)
  AE: Cough: 0 n (%)
  AE: Cystitis Viral: 0 n (%)
  AE: Cytomegalovirus Infection: 0 n (%)
  AE: Decreased Appetite: 0 n (%)
  AE: Diarrhoea: 0 n (%)
  AE: Dyspepsia: 0 n (%)
  AE: Dyspnoea: 1 (2.7) n (%)
  AE: Epistaxis: 0 n (%)
  AE: Fatigue: 0 n (%)
  AE: Febrile Neutropenia: 11 (29.7) n (%)
  AE: Gamma-Glutamyltransferase Increased: 1 (2.7) n (%)
  AE: General Physical Health Deterioration: 0 n (%)
  AE: Gingival Bleeding: 0 n (%)
  AE: Graft Versus Host Disease: 0 n (%)
  AE: Haemoglobin Decreased: 0 n (%)
  AE: Headache: 0 n (%)
  AE: Hyperbilirubinaemia: 0 n (%)
  AE: Hyperglycaemia: 0 n (%)
  AE: Hyperkalaemia: 1 (2.7) n (%)
  AE: Hyperphosphataemia: 0 n (%)
  AE: Hyperuricaemia: 1 (2.7) n (%)
  AE: Hypoalbuminaemia: 0 n (%)
  AE: Hypocalcaemia: 0 n (%)
  AE: Hypokalaemia: 0 n (%)
  AE: Hypomagnesaemia: 0 n (%)
  AE: Hyponatraemia: 0 n (%)
  AE: Hypophosphataemia: 2 (5.4) n (%)
  AE: Hypotension: 0 n (%)
  AE: Infection: 1 (2.7) n (%)
  AE: Infective Glossitis: 0 n (%)
  AE: Iron Overload: 0 n (%)
  AE: Leukopenia: 2 (5.4) n (%)
  AE: Lip Oedema: 0 n (%)
  AE: Lipase Increased: 2 (5.4) n (%)
  AE: Macular Oedema: 1 (2.7) n (%)
  AE: Malaise: 0 n (%)
  AE: Mouth Haemorrhage: 0 n (%)
  AE: Nausea: 0 n (%)
  AE: Neutropenia/Neutrophil Count Decreased: 11 (29.7) n (%)
  AE: Oedema: 0 n (%)
  AE: Oedema Peripheral: 0 n (%)
  AE: Oral Disorder: 0 n (%)
  AE: Pain In Extremity: 0 n (%)
  AE: Pancytopenia: 2 (5.4) n (%)
  AE: Pneumonia: 0 n (%)
  AE: Pollakiuria: 0 n (%)
  AE: Pyrexia: 0 n (%)
  AE: Rash: 0 n (%)
  AE: Rash Erythematous: 0 n (%)
  AE: Rash Papular: 0 n (%)
  AE: Rectal Haemorrhage: 0 n (%)
  AE: Renal Failure: 1 (2.7) n (%)
  AE: Skin Exfoliation: 0 n (%)
  AE: Stomatitis: 1 (2.7) n (%)
  AE: Subarachnoid Haemorrhage: 1 (2.7) n (%)
  AE: Thrombocytopenia/Platelet Count Decreased: 18 (48.6) n (%)
  AE: Total: 25 (67.6) n (%)
  AE: Tumour Lysis Syndrome: 9 (24.3) n (%)
  AE: Vomiting: 0 n (%)
  AE: Weight Decreased: 0 n (%)
  AE: White Blood Cell Count Decreased: 3 (8.1) n (%)
Regimen 1A N = 16, All Grades
  AE: Abdominal Discomfort: 1 (6.3) n (%)
  AE: Abdominal Pain: 2 (12.5) n (%)
  AE: Abdominal Pain Upper: 1 (6.3) n (%)
  AE: Acute Kidney Injury: 1 (6.3) n (%)
  AE: Amylase Increased: 3 (18.8) n (%)
  AE: Anaemia: 6 (37.5) n (%)
  AE: Arthralgia: 1 (6.3) n (%)
  AE: Asthenia: 2 (12.5) n (%)
  AE: Atrial Fibrillation: 2 (12.5) n (%)
  AE: Atypical Pneumonia: 1 (6.3) n (%)
  AE: Balanitis Candida: 1 (6.3) n (%)
  AE: Blood Alkaline Phosphatase Increased: 1 (6.3) n (%)
  AE: Blood Bilirubin Increased: 1 (6.3) n (%)
  AE: Blood Creatinine Increased: 1 (6.3) n (%)
  AE: Blood Phosphorus Increased: 1 (6.3) n (%)
  AE: Blood Uric Acid Increased: 1 (6.3) n (%)
  AE: Bone Marrow Failure: 0 n (%)
  AE: C-Reactive Protein Increased: 1 (6.3) n (%)
  AE: Cardiac Failure: 1 (6.3) n (%)
  AE: Cellulitis: 0 n (%)
  AE: Chronic Graft Versus Host Disease: 1 (6.3) n (%)
  AE: Conjunctival Haemorrhage: 1 (6.3) n (%)
  AE: Constipation: 0 n (%)
  AE: Cough: 1 (6.3) n (%)
  AE: Cystitis Viral: 1 (6.3) n (%)
  AE: Cytomegalovirus Infection: 0 n (%)
  AE: Decreased Appetite: 4 (25.0) n (%)
  AE: Diarrhoea: 4 (25.0) n (%)
  AE: Dyspepsia: 1 (6.3) n (%)
  AE: Dyspnoea: 1 (6.3) n (%)
  AE: Epistaxis: 0 n (%)
